Data published in patent EP1743636A1, “Combination of a substituted pyrazoline compound and a drug used in food-related disorders” (LABORATORIOS DEL DR. ESTEVE, S.A., priority 2005, dated 2007).
Where two headings read alike, the source gives them in different places.

How the values were obtained:
[1] = target: T1, transfected human CB2 receptors (Homo sapiens, UniProt P34972); assay: In-vitro determination of affinity to CB2 receptor (radioligand [3H]-CP55940); assay type: binding; conditions: for Ki: radioligand [3H]-CP55940; for inhibition at 1 µM: read-out: CB2-Receptor % Inhibition 10^-6 M
T1 construct: purchased Receptor Biology, Inc
T1 sequence (P34972 whole entry): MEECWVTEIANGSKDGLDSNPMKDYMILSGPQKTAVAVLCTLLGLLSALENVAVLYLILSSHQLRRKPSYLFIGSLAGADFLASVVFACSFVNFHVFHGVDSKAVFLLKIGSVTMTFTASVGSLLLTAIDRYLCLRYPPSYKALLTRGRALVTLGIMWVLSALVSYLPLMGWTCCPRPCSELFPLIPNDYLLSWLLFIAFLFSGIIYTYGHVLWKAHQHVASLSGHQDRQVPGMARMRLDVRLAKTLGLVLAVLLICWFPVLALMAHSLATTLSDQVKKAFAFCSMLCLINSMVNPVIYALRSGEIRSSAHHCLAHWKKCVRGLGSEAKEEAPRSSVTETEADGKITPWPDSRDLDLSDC
Experimental: (§1) The in-vitro determination of the affinity of the substituted pyrazoline compounds to CB1/CB2-Rezeptors is carried out as described in the publication of Ruth A. Ross, Heather C. Brockie et al., "Agonist-inverse agonist characterization at CB1 and CB2 cannabinoid receptors of L-759633, L759656 and AM630", British Journal of Pharmacology, 126, 665-672, (1999), whereby the transfected human CB1 and CB2 receptors of Receptor Biology, Inc. are used. The radioligand used for both receptors is [^3H]-CP55940. The respective parts of the description is hereby incorporated by reference and forms part of the present disclosure. The affinity of the inventive substituted pyrazoline compounds to CB1/CB2 receptors was determined as described above.

Male NMRI mice [2] = assay: Mouse tetrad model: hot plate analgesia; assay type: in vivo; conditions: for Antagonistic Effect A: Hot-Plate test: 5 mg/kg i.v. prior to Win 55212-2 in a dose of 1,25mg/kg i.v.; for Agonistic effect A: Hot-Plate test: 5 mg/kg i.v., measured 15 minutes after injection
Excerpt: (§2) Substances with affinity for cannabinoid receptors are known to produce a wide range of pharmacological effects. It is also known that intravenous administration of a substance with affinity for cannabinoid receptors in mice produces analgesia , hypothermia, sedation and catalepsy. Individually, none of these effects can be considered as proof that a tested substance has affinity for cannabinoid-receptors, since all of these effects are common for various classes of centrally active agents. However, substances, which show all of these effects, i.e. substances that are active in this so-called tetrad model are considered to have affinity for the cannabinoid receptors. It has further been shown that cannabinoid receptor antagonists are higly effective in blocking the effects of a cannabinoid agonist in the mouse tetrad model.
(§3) The tetrad model is described, for example, in the publication of A. C. Howlett et al, International Union of Pharmacology XXVII. Classification of Cannabinoid Receptors, Pharmacol Rev 54, 161-202, 2002 and David R. Compton et al., "In-vivo Characterization of a Specific Cannabinoid Receptor Antagonist (SR141716A) :Inhibition of Tetrahydrocannbinol- induced Responses and Apparent Agonist Activity", J. Pharmacol. Exp. Ther. 277 , 2, 586-594, 1996. The corresponding parts of the description are hereby incorporated by reference. […]
(§4) Before testing in the behavioral procedures given below, mice are acclimatized to the experimental setting. Pre-Treatment control values are determined for analgesia hot plate latency (in seconds), rectal temperature, sedation and catalepsy.
(§5) In order to determine the agonistic activty of the substance to be tested, the mice are injected intravenously with the substance to be tested or the vehicle alone. 15 minutes after injection, latency in hot plate analgesia is measured. Rectal temperature, sedation and catalepsy are measured 20 minutes after injection.
(§6) In order to determine the antagonistic activity the identical procedure is used as for the determination of the agonistic effects, but with the difference that the substance to be evaluated for its antagonistic activity is injectected 5 minutes before the intravenous injection of 1.25 mg/kg Win-55,212 a known cannabinoid-receptor agonist.
The hot plate analgesia is determined according to the method described in Woolfe D. et al. "The evaluation of analgesic action of pethidine hydrochloride (Demerol)", J. Pharmacol. Exp. Ther. 80, 300-307,1944. […]
The mice are placed on a hot plate (Harvard Analgesimeter) at 55 ± 0.5 °C until they show a painful sensation by licking their paws or jumping and the time for these sensations to occur is recorded. This reading is considered the basal value (B). […]
(§7) The determinination of cannabinoid activity in-vivo was determined as described above. […]

[3] = target: T2, transfected human CB1 receptors (Homo sapiens, UniProt P21554); assay: In-vitro determination of affinity to CB1 receptor (radioligand [3H]-CP55940); assay type: binding; conditions: for inhibition at 1 µM: read-out: CB1-Receptor % Inhibition 10^-6 M
T2 construct: purchased Receptor Biology, Inc
T2 sequence (P21554 whole entry): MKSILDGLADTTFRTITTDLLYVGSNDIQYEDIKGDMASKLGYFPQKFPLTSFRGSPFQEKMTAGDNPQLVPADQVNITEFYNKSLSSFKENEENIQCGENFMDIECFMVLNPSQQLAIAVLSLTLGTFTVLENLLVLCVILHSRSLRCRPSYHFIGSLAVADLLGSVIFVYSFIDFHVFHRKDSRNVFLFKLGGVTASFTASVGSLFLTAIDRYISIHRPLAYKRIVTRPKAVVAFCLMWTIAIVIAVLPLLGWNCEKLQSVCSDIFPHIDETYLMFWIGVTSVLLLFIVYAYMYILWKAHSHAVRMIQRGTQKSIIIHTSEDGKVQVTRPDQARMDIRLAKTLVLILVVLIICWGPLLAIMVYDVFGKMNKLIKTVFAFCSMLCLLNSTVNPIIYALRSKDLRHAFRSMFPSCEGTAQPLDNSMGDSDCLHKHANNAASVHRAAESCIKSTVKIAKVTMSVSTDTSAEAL
Experimental: as §1

Male NMRI mice [4] = assay: Mouse tetrad model: catalepsy; assay type: in vivo; conditions: for Antagonistic Effect C: Catalepsy: 5 mg/kg i.v. prior to Win 55212-2 in a dose of 1,25mg/kg i.v.; for Agonistic effect C: Catalepsy: 5 mg/kg i.v., measured 20 minutes after injection
Excerpt: as §2, §3, §4, §5, §6
Catalepsy is determined according to the method described in Alpermann H. G. et al. "Pharmacological effets of Hoe 249: A new potential antidepressant", Drugs Dev. […]
The cataleptic effect of the substance to be tested is evaluated according to the duration of catalepsy, whereby the animals are placed head downwards with their kinlegs upon the top of the wooden block. […]
The percentage of catalepsy is determined according ot the following formula: %Catalepsy = arithmetic mean/6 × 100 [formula] […]

Male NMRI mice [5] = assay: Mouse tetrad model: sedation and ataxia; assay type: in vivo; conditions: for Antagonistic Effect D: Sedation: 5 mg/kg i.v. prior to Win 55212-2 in a dose of 1,25mg/kg i.v.; for Agonistic effect D: Sedation: 5 mg/kg i.v., measured 20 minutes after injection
Excerpt: as §2
The tetrad model is described, for example, in the publication of A. C. Howlett et al, International Union of Pharmacology XXVII. Classification of Cannabinoid Receptors, Pharmacol Rev 54, 161-202, 2002 and David R. Compton et al., "In-vivo Characterization of a Specific Cannabinoid Receptor Antagonist (SR141716A) :Inhibition of Tetrahydrocannbinol- induced Responses and Apparent Agonist Activity", J. Pharmacol. Exp. Ther. 277 , 2, 586-594, 1996. The corresponding parts of the description are hereby incorporated by reference.
Male NMRI mice with a weight of 20-30 g (Harlan, Barcelona, Spain) are used in all of the following experiments.
as §4, §5, §6
Sedation and ataxia is determined according to the method described in Desmet L. K. C. et al. "Anticonvulsive properties of Cinarizine and Flunarizine in Rats and Mice", Arzneim. -Forsch. (Frug Res) 25, 9, 1975. […]
The percentage of sedation is determined according to the formula: %of sedation = arithmetic mean/3 × 100 [formula]
as §7

Male NMRI mice [6] = assay: Mouse tetrad model: hypothermia; assay type: in vivo; conditions: for Antagonistic Effect B: Hypothermia: 5 mg/kg i.v. prior to Win 55212-2 in a dose of 1,25mg/kg i.v.; for Agonistic effect B: Hypothermia: 5 mg/kg i.v., measured 20 minutes after injection
Excerpt: as §2, §3, §4, §5, §6
Hypothermia is determined according to the method described in David R. Compton et al. "In-vivo Characterization of a Specific Cannabinoid Receptor Antagonist (SR141716A) Inhibition of Tetrahydrocannbinol- induced Responses and Apparent Agonist Activity", J. Pharmacol Exp Ther. 277 , 2, 586-594, 1996. […]
The base-line rectal temperatures are determined with a thermometer (Yello Springs Instruments Co., Panlabs) and a thermistor probe inserted to 25mm before the administration of the substance to be tested. […]

Row | Structure (SMILES) | Ki [1] | inhibition at 1 µM [1] | Antagonistic Effect A: Hot-Plate test (Male NMRI mice [2]) | Agonistic effect A: Hot-Plate test (Male NMRI mice [2]) | Ki [3] | inhibition at 1 µM [3] | Antagonistic Effect C: Catalepsy (Male NMRI mice [4]) | Agonistic effect C: Catalepsy (Male NMRI mice [4]) | Antagonistic Effect D: Sedation (Male NMRI mice [5]) | Agonistic effect D: Sedation (Male NMRI mice [5]) | Antagonistic Effect B: Hypothermia (Male NMRI mice [6]) | Agonistic effect B: Hypothermia (Male NMRI mice [6]) | Ki ([3]; radioligand [3H]-CP55940, read-out: CB1-Receptor Ki)
1 | O=C(NN1CCCCC1)C1=NN(c2ccc(Cl)cc2Cl)C(c2ccc(Cl)cc2)C1 (stereo not drawn) [Example 1, N-piperidinyl-5-(4-chlorophenyl)-1-(2,4-dichlorophenyl)-4,5-dihydro-1H-pyrazole-3-carboxamide] | > 1000 nM | 33% | 74 | 0 | < 25 nM | 93% | 100 | 0 | 100 | 0 | 100 | 0 | 
2 | O=C(C1=NN(c2ccc(Cl)cc2Cl)C(c2ccc(Cl)cc2)C1)N1CCCCC1 (stereo not drawn) [Example 5, [5-(4-Chloro-phenyl)-1-(2,4-dichloro-phenyl)-4,5-dihydro-1H-pyrazol-3-yl]-piperidin-1-yl-methanone] | ~1000 nM | 54% | 50 | 0 |  | 79% | 20 | 0 | 20 | 0 | 40 | 50 | 111 nM
